Experimental data as given in paper PMC9320654 (Toxins, 2022).
Structures can show the parent of a compound that is named as a salt.

Assays:
[1] = Plasma stability, human plasma; format: in vitro ADME
Procedure: (§1) The pooled frozen plasma was thawed in a water bath at 37 °C prior to the experiment. Plasma was centrifuged at 4000 rpm for 5 min, and the clots, if any, were removed. Using an Apricot automation workstation, blank plasma (98 μL/well) was added to six 96-well reaction plates (Blank, T0, T10, T30, T60, and T120). An Apricot automation workstation was used to add working solution (2 μL/well, 100 μM) to all reaction plates except the Blank plate (T0, T10, T30, T60, and T120). All reaction plates containing mixtures of compound and plasma were incubated at 37 °C in a water bath. At the end of the incubation, 400 μL of stop solution (200 ng/mL tolbutamide and 200 ng/mL labetalol in acetonitrile) was added to precipitate the protein, and the mixture was mixed thoroughly. Samples were then vortexed and centrifuged (20 min, 4000 rpm, 4 °C). After centrifugation, an Apricot automation workstation was used to transfer 50 μL of supernatant into 100 μL of HPLC water. […] Each bioanalysis plate was sealed and shaken for 10 min prior to LC-MS/MS analysis. The % remaining test compound after incubation in plasma was calculated using the following equation:(11) % Remaining= PAR at appointed incubation time/PAR at T0 time×100 where PAR is the peak area ratio of analyte versus internal standard (IS).
(§2) The appointed incubation time points are T0 (0 min), Tn (n = 0, 10, 30, 60, 120 min).

[2] = Plasma stability, mouse plasma; format: in vitro ADME
Procedure: as §1, §2

[3] = target: T1, CYP2C9 (Homo sapiens, UniProt P11712); format: in vitro ADME; settings: CYP2C9 in HLM; positive control, final conc. 3 μM in Table S1
T1 construct: tissue Corning or Xenotech; host or cells: human liver microsomes (mixed gender)
T1 sequence (P11712 whole entry): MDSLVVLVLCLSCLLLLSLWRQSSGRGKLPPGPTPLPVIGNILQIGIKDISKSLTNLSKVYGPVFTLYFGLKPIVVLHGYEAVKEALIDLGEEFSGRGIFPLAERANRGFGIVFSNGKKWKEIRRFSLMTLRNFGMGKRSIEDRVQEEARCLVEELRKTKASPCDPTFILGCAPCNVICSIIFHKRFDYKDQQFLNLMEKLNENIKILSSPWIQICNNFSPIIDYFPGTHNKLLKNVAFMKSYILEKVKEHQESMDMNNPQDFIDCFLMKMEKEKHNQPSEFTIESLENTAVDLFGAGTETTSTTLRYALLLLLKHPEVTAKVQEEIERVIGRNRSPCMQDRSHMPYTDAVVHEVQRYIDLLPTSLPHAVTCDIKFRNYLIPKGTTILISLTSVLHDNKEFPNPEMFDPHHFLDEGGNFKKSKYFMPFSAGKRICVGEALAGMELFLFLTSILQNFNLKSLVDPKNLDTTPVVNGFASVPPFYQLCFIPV
Procedure: A mixture of microsomes and substrates for each CYP isozyme were prepared individually in 100 mM potassium phosphate buffer at pH 7.4. […] The reaction mixture was incubated for 10 min, followed by the addition of 20 μL of 10 mM NADPH solution. […] At the appropriate time point, we terminated the reaction by adding 400 µL of cold stop solution (200 ng/mL tolbutamide and labetalol in acetonitrile). The samples were centrifuged at 4000 rpm for 20 min to precipitate the protein, and then detected by LC/MS/MS. XL fit was used to plot the percent of vehicle control versus the test compound concentrations and for nonlinear regression analysis of the data. The IC50 values were determined using 3- or 4-parameter logistic equations.

[4] = Metabolite identification by LC-UV-MS^n in monkey liver microsomes; format: in vitro ADME; parameters: key: +: metabolite was detected in liver microsomes; -: metabolite was not detected in liver microsomes; settings: BEA 10 µM, 37 °C, 60 min
Procedure: (§3) The positive control, 7-ethoxycoumarin (7-EC) at 10 µM, was run concurrently to assess Phase I metabolic activities in liver microsomes. […] After incubation, the samples were analyzed by LC-UV-MS (Table S7). The structures of the metabolites were proposed based on the interpretation of their MS and MS2 data. The results are presented in Table 6 and Figure 6. %Total=Peak Area of a Releted Component/Peak Area of Total Releted Component×100%

[5] = Metabolite identification by LC-UV-MS^n in rat liver microsomes; format: in vitro ADME; parameters: key: +: metabolite was detected in liver microsomes; -: metabolite was detected in liver microsomes; settings: BEA 10 µM, 37 °C, 60 min
Procedure: as §3

[6] = Metabolite identification by LC-UV-MS^n in mouse liver microsomes; format: in vitro ADME; parameters: key: +: metabolite was detected in liver microsomes; -: metabolite was detected in liver microsomes; settings: BEA 10 µM, 37 °C, 60 min
Procedure: as §3

[7] = Metabolite identification by LC-UV-MS^n in human liver microsomes; format: in vitro ADME; parameters: key: +: metabolite was detected in liver microsomes; -: metabolite was not detected in liver microsomes; settings: BEA 10 µM, 37 °C, 60 min
Procedure: as §3

[8] = Metabolite identification by LC-UV-MS^n in dog liver microsomes; format: in vitro ADME; parameters: key: +: metabolite was detected in liver microsomes; -: metabolite was detected in liver microsomes; settings: BEA 10 µM, 37 °C, 60 min
Procedure: as §3

[9] = Metabolic stability in liver microsomes, DLM; format: in vitro ADME, beagle dog
Procedure: (§4) All incubations were performed at 37 °C in 100 mM potassium phosphate buffer in an orbital incubator. Various nicotinamide adenine dinucleotide phosphate (NADPH) concentrations were tried to optimize the method. […]. The positive control compound testosterone was incubated in parallel with the BEA samples. Each bioanalysis plate was sealed and shaken for 10 min prior to LC-MS/MS analysis (Table S6). […]

[10] = Metabolic stability in liver microsomes, MLM; format: in vitro ADME, CD-1 mouse
Procedure: (§5) All incubations were performed at 37 °C in 100 mM potassium phosphate buffer in an orbital incubator. Various nicotinamide adenine dinucleotide phosphate (NADPH) concentrations were tried to optimize the method. […] Samples were withdrawn from the reaction mixture at different times (5, 15, 30, 45, and 60 min), and the reaction was terminated using acetonitrile. […] Each bioanalysis plate was sealed and shaken for 10 min prior to LC-MS/MS analysis (Table S6).

[11] = Metabolic stability in liver microsomes, RLM; format: in vitro ADME, Sprague Dawley rat
Procedure: as §4

[12] = Metabolic stability in liver microsomes, CLM; format: in vitro ADME, cynomolgus monkey
Procedure: as §5

[13] = Metabolic stability in cryopreserved hepatocytes, monkey; format: in vitro ADME, cynomolgus monkey
Procedure: (§6) Hepatocyte metabolic stability was evaluated in cryopreserved hepatocytes from CD-1 mice (Lot#: EXR), Sprague Dawley rats (Lot#: OSQ), beagle dogs (Lot#: ZMB), cynomolgus monkeys (Lot#: KMS), and human donors (Lot#: AEL) obtained from Bioreclamation IVT, LLC (Shanghai, China). […] Samples were withdrawn from the reaction mixture at 0, 15, 30, 60, and 90 min and were quenched with stop solution (acetonitrile containing 200 ng/mL tolbutamide and 200 ng/mL labetalol as internal standards). A cocktail of 7-ethoxycoumarin (Lot#: I1825085) was used as the positive control for the assay. The analytical plates were sealed and stored at 4 °C until LC-MS/MS analysis.
(§7) The remaining percentages of test articles after incubation were calculated by the following equations:(7) %Remainingat Appointed Time=Peak Area Ratios of Test Article versus Internal Standard at Appointed Time/Peak Area Ratios of Test Article versus Internal Standard 0 min
(§8) We used the equation of first order kinetics to calculate T1/2 and CLint:
(§9) Equation of first-order kinetics:(8) Ct=C0·e^−k·t when Ct=1/2C0,T1/2=ln2/k=0.693/k (9) CLint hep=k/million cells per mL (10) CLint liver=CLint hep×Liver weight g/kg body weight×hepatocellularity

[14] = Metabolic stability in cryopreserved hepatocytes, rat; format: in vitro ADME, Sprague Dawley rat
Procedure: as §6, §7, §8, §9

[15] = Metabolic stability in cryopreserved hepatocytes, dog; format: in vitro ADME, beagle dog
Procedure: as §6, §7, §8, §9

[16] = Metabolic stability in cryopreserved hepatocytes, human; format: in vitro ADME
Procedure: as §6, §7, §8, §9

[17] = Metabolic stability in cryopreserved hepatocytes, mouse; format: in vitro ADME, CD-1 mouse
Procedure: as §6, §7, §8, §9

[18] = Plasma stability, dog plasma; format: in vitro ADME; settings: beagle
Procedure: as §1, §2

[19] = Plasma protein binding (HTdialysis equilibrium dialysis), dog plasma; format: in vitro ADME; settings: beagle, pH 7.4, read-out: Fu (%), unbound fraction
[20] = Plasma protein binding (HTdialysis equilibrium dialysis), mouse plasma; format: in vitro ADME, CD-1 mouse; settings: CD-1, pH 7.4, read-out: Fu (%), unbound fraction
[21] = Plasma protein binding (HTdialysis equilibrium dialysis), monkey plasma; format: in vitro ADME, cynomolgus monkey; settings: pH 7.4, read-out: Fu (%), unbound fraction
[22] = Plasma protein binding (HTdialysis equilibrium dialysis), rat plasma; format: in vitro ADME; settings: Sprague Dawley, pH 7.4, read-out: Fu (%), unbound fraction
[23] = Plasma stability, monkey plasma; format: in vitro ADME; settings: cynomolgus
Procedure: as §1, §2

[24] = tested on: CYP3A4/5; settings: ref 20 (Li Mei's group); cited from earlier work
[25] = Plasma stability, rat plasma; format: in vitro ADME
Procedure: as §1, §2

[26] = 120 min, read-out: Remaining % (T = 120 min)

## CC(C)[N+](C)(CCOC(=O)C1c2ccccc2Oc2ccccc21)C(C)C [Propantheline bromide]
[1]; 37 °C, n = 2
  half-life at 2 μM: 10.3 min
[1]; [26]
  remaining at 2 h, 2 μM: 0%
[2]; CD-1, 37 °C, n = 2
  half-life at 2 μM: 36.6 min
[2]; CD-1, 120 min, read-out: Remaining % (T = 120 min)
  remaining at 2 h, 2 μM: 9.7%

## Nc1ccc(S(=O)(=O)Nc2ccnn2-c2ccccc2)cc1 [Sulfaphenazole]
[3]
  Activity (% VC): 20.0 % VC

## CC(C)[C@H]1OC(=O)[C@H](Cc2ccccc2)N(C)C(=O)[C@@H](C(C)C)OC(=O)[C@H](Cc2ccccc2)N(C)C(=O)[C@@H](C(C)C)OC(=O)[C@H](Cc2ccccc2)NC1=O [M15]
[4]
  Detected in liver microsomes: Monkey: +
[5]
  Detected in liver microsomes: Rat: +
[6]
  Detected in liver microsomes: Mouse: +
[7]
  Detected in liver microsomes: Human: +
[8]
  Detected in liver microsomes: Dog: +

## C[C@]12CC[C@H]3[C@@H](CCC4=CC(=O)CC[C@@]43C)[C@@H]1CC[C@@H]2O [Testosterone]
[9]; DLM, 1 μM, NADPH, n = 2
  T1/2: 20.0 min
[9]; beagle, dog, microsomes, DLM, read-out: CLint(mic)
  microsomal CLint at 1 μM: 69.2 µL/min/mg
[9]; beagle, dog, microsomes, scaled from DLM CLint(mic)
  CLint scaled at 1 μM: 99.6 mL/min/kg
[10]; CD-1, mouse, liver microsomes, MLM, 1 μM, NADPH, n = 2
  half-life at 1 μM: 3.9 min
[10]; CD-1, mouse, liver microsomes, MLM, read-out: CLint(mic)
  microsomal CLint at 1 μM: 359 µL/min/mg
[10]; CD-1, mouse, liver microsomes, scaled from MLM CLint(mic)
  CLint scaled at 1 μM: 1420 mL/min/kg
[10]; MLM, 60 min
  Remaining % (T = 60 min): 0.0%
[11]; RLM, 60 min
  Remaining % (T = 60 min): 0.0%
[11]; Sprague Dawley, rat, microsomes, RLM, read-out: CLint(mic)
  microsomal CLint at 1 μM: 1370 µL/min/mg
[11]; Sprague Dawley, rat, microsomes, scaled from RLM CLint(mic)
  CLint scaled at 1 μM: 2470 mL/min/kg
[12]; CLM, 60 min
  Remaining % (T = 60 min): 0.0%
[12]; cynomolgus monkey, liver microsomes, CLM, 1 μM, NADPH, n = 2
  half-life at 1 μM: 5 min
[12]; cynomolgus monkey, liver microsomes, CLM, read-out: CLint(mic)
  microsomal CLint at 1 μM: 277 µL/min/mg
[12]; cynomolgus monkey, liver microsomes, scaled from CLM CLint(mic)
  CLint scaled at 1 μM: 374 mL/min/kg

## CCOc1ccc2ccc(=O)oc2c1 [7-Ethoxycoumarin]
[13]; cryopreserved hepatocytes in suspension, monkey hepatocytes, 0.5 × 10^6 cells/mL, 1 μM, n = 2
  half-life at 1 μM: 13.6 min
[13]; cynomolgus monkey, cryopreserved hepatocytes in suspension, scaled from monkey hepatocyte CLint, read-out: CLint (liver)
  CLint scaled at 1 μM: 367 mL/min/kg
[13]; monkey hepatocytes
  CLint (hep) (μL/min/10^6): 102.0 μL/min/10^6
[13]; monkey hepatocytes, 90 min
  Remaining % (T = 90 min): 0.0%
[14]; Sprague Dawley, cryopreserved hepatocytes (suspension), rat hepatocytes, 0.5 × 10^6 cells/mL, 1 μM, n = 2
  half-life at 1 μM: 18.2 min
[14]; Sprague Dawley, cryopreserved hepatocytes in suspension, rat hepatocytes, 90 min, read-out: Remaining % (T = 90 min)
  remaining at 1.5 h, 1 μM: 2.1%
[14]; Sprague Dawley, cryopreserved hepatocytes in suspension, scaled from rat hepatocyte CLint, read-out: CLint (liver)
  CLint scaled at 1 μM: 356 mL/min/kg
[14]; rat hepatocytes
  CLint (hep) (μL/min/10^6): 76.0 μL/min/10^6
[15]; beagle, cryopreserved hepatocytes in suspension, dog hepatocytes, 0.5 × 10^6 cells/mL, 1 μM, n = 2
  half-life at 1 μM: 5.4 min
[15]; beagle, cryopreserved hepatocytes in suspension, scaled from dog hepatocyte CLint, read-out: CLint (liver)
  CLint scaled at 1 μM: 1760 mL/min/kg
[15]; dog hepatocytes
  CLint (hep) (μL/min/10^6): 256.4 μL/min/10^6
[15]; dog hepatocytes, 90 min
  Remaining % (T = 90 min): 0.0%
[16]; cryopreserved hepatocytes (suspension), human hepatocytes, 0.5 × 10^6 cells/mL, 1 μM, n = 2
  half-life at 1 μM: 41.6 min
[16]; cryopreserved hepatocytes in suspension, human hepatocytes, 90 min, read-out: Remaining % (T = 90 min)
  remaining at 1.5 h, 1 μM: 21.9%
[16]; cryopreserved hepatocytes in suspension, scaled from human hepatocyte CLint, read-out: CLint (liver)
  CLint scaled at 1 μM: 92.6 mL/min/kg
[16]; human hepatocytes
  CLint (hep) (μL/min/10^6): 33.3 μL/min/10^6
[17]; CD-1, cryopreserved hepatocytes (suspension), mouse hepatocytes, 0.5 × 10^6 cells/mL, 1 μM, n = 2
  half-life at 1 μM: < 7.5 min
[17]; CD-1, cryopreserved hepatocytes in suspension, scaled from mouse hepatocyte CLint, read-out: CLint (liver)
  CLint scaled at 1 μM: > 2200 mL/min/kg
[17]; mouse hepatocytes
  CLint (hep) (μL/min/10^6): >184.8 μL/min/10^6
[17]; mouse hepatocytes, 90 min
  Remaining % (T = 90 min): 0.0%

## CC(=O)Oc1ccc(C(c2ccc(OC(C)=O)cc2)c2ccccn2)cc1 [Bisacodyl]
[18]; 37 °C, n = 2
  half-life at 2 μM: 7.2 min
[18]; [26]
  remaining at 2 h, 2 μM: 0%

## CC(=O)CC(c1ccccc1)c1c(O)c2ccccc2oc1=O (stereo not shown) [warfarin]
[19]
  fraction unbound at 5 h: 0.0246
[20]
  fraction unbound at 5 h: 0.0271
[21]
  fraction unbound at 5 h: 0.0084
[22]
  fraction unbound at 5 h: 0.0052

## CCN(CC)CCOC(=O)c1ccc(N)cc1 [Procaine Hydrochloride]
[23]; 37 °C, n = 2
  half-life at 2 μM: 4.4 min
[23]; [26]
  remaining at 2 h, 2 μM: 0%

## Beauvericin
[24]
  Inhibition mechanism, CYP3A4: mix-type

## CCOC(=O)[C@H](CCc1ccccc1)N[C@@H](C)C(=O)N1CCC[C@H]1C(=O)O.O=C(O)/C=C\C(=O)O [Enalapril maleate salt]
[25]; 37 °C, n = 2
  T1/2: 12.8 min
[25]; 120 min
  Remaining % (T = 120 min): 0.2%
